From PubChem BioAssay (NCI)
Values joined by “and” are separate entries in the source; they are usually repeats but may differ in a detail not shown here. Equal entries are not always repeated.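 Grown in 96-well plates, cells were treated for 48 hours with each compound at five concentrations. Insufficient inhibition: endpoint recorded as highest concentration tested. Here, GI50 denotes the concentration required for 50% inhibition of growth. TGI denotes the concentration required for complete inhibition of growth.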

Columns and labels:
Test in all cases: DTP human tumour cell line panel, 48 h
786-0 renal = test system: 786-0 renal
A498 renal = test system: A498 renal
A549 NSCLC = test system: A549 NSCLC
ACHN renal = test system: ACHN renal
BT-549 breast = test system: BT-549 breast
CAKI-1 renal = test system: CAKI-1 renal
CCRF-CEM leukemia = test system: CCRF-CEM leukemia
COLO 205 colon = test system: COLO 205 colon
DU-145 prostate = test system: DU-145 prostate
EKVX NSCLC = test system: EKVX NSCLC
HCC-2998 colon = test system: HCC-2998 colon
HCT-116 colon = test system: HCT-116 colon
HCT-15 colon = test system: HCT-15 colon
HL-60(TB) leukemia = test system: HL-60(TB) leukemia
HOP-62 NSCLC = test system: HOP-62 NSCLC
HOP-92 NSCLC = test system: HOP-92 NSCLC
HS 578T breast = test system: HS 578T breast
HT29 colon = test system: HT29 colon
IGROV1 ovarian = test system: IGROV1 ovarian
K-562 leukemia = test system: K-562 leukemia
KM12 colon = test system: KM12 colon
LOX IMVI melanoma = test system: LOX IMVI melanoma
M14 melanoma = test system: M14 melanoma
MALME-3M melanoma = test system: MALME-3M melanoma
MCF7 breast = test system: MCF7 breast
MDA-MB-231 breast = test system: MDA-MB-231 breast
MOLT-4 leukemia = test system: MOLT-4 leukemia
NCI-H226 lung = test system: NCI-H226 lung
NCI-H23 lung = test system: NCI-H23 lung
NCI-H460 lung = test system: NCI-H460 lung
NCI-H522 lung = test system: NCI-H522 lung
NCI/ADR-RES ovarian = test system: NCI/ADR-RES ovarian
OVCAR-3 ovarian = test system: OVCAR-3 ovarian
OVCAR-4 ovarian = test system: OVCAR-4 ovarian
OVCAR-5 ovarian = test system: OVCAR-5 ovarian
OVCAR-8 ovarian = test system: OVCAR-8 ovarian
PC-3 prostate = test system: PC-3 prostate
RPMI-8226 leukemia = test system: RPMI-8226 leukemia
RXF 393 renal = test system: RXF 393 renal
SF-268 CNS = test system: SF-268 CNS
SF-295 CNS = test system: SF-295 CNS
SF-539 CNS = test system: SF-539 CNS
SK-MEL-2 melanoma = test system: SK-MEL-2 melanoma
SK-MEL-28 melanoma = test system: SK-MEL-28 melanoma
SK-OV-3 ovarian = test system: SK-OV-3 ovarian
SN12C renal = test system: SN12C renal
SNB-19 CNS = test system: SNB-19 CNS
SNB-75 CNS = test system: SNB-75 CNS
SR leukemia = test system: SR leukemia
SW-620 colon = test system: SW-620 colon
T-47D breast = test system: T-47D breast
TK-10 renal = test system: TK-10 renal
U251 CNS = test system: U251 CNS
UACC-257 melanoma = test system: UACC-257 melanoma
UO-31 renal = test system: UO-31 renal

`O=C1C=CC2(C=C1)CCN=c1c(O)c3c(c(O)c12)=NC=N3` was tested, and the GI50 (786-0 renal) was 17.6 µM and > 100 µM, the TGI (786-0 renal) was 32.1 µM and > 100 µM and the GI50 (A498 renal) was 19.2 µM and > 100 µM. The TGI (A498 renal) was 33.5 µM and > 100 µM, the GI50 (A549 NSCLC) was 17.9 µM and > 100 µM and the TGI (A549 NSCLC) was 39.2 µM and > 100 µM. For the same compound, the GI50 (ACHN renal) was 12.6 µM and > 100 µM, the TGI (ACHN renal) was 25.7 µM and > 100 µM and the GI50 (BT-549 breast) was 18.1 µM and > 100 µM. For the same compound, the TGI (BT-549 breast) was 32.4 µM and > 100 µM, the TGI (CAKI-1 renal) was 27.5 µM and > 100 µM and the TGI (CCRF-CEM leukemia) was > 100 µM. For the same compound, the GI50 (COLO 205 colon) was 21.2 µM and > 100 µM, the TGI (COLO 205 colon) was 36.7 µM and > 100 µM and the GI50 (DU-145 prostate) was 14.7 µM and > 100 µM. For the same compound, the TGI (DU-145 prostate) was 28 µM and > 100 µM, the GI50 (EKVX NSCLC) was 17 µM and > 100 µM and the TGI (EKVX NSCLC) was 31.7 µM and > 100 µM. The GI50 (HCC-2998 colon) was 18.5 µM and > 100 µM, the TGI (HCC-2998 colon) was 32.6 µM and > 100 µM and the TGI (HCT-116 colon) was 22.5 µM and > 100 µM. The GI50 (HCT-15 colon) was 14.5 µM and > 100 µM, the TGI (HCT-15 colon) was 29.9 µM and > 100 µM and the GI50 (HL-60(TB) leukemia) was 8.02 µM and 59.9 µM. For the same compound, the TGI (HL-60(TB) leukemia) was > 100 µM, the GI50 (HOP-62 NSCLC) was 16.3 µM and > 100 µM and the TGI (HOP-62 NSCLC) was 30.3 µM and > 100 µM. The GI50 (HOP-92 NSCLC) was 14.8 µM and > 100 µM, the TGI (HOP-92 NSCLC) was 28.9 µM and > 100 µM and the TGI (HS 578T breast) was 71.4 µM and > 100 µM. For the same compound, the GI50 (HT29 colon) was 20.3 µM and > 100 µM, the TGI (HT29 colon) was 47.3 µM and > 100 µM and the TGI (IGROV1 ovarian) was 31 µM. The TGI (K-562 leukemia) was 42.6 µM and > 100 µM, the GI50 (KM12 colon) was 14.4 µM and > 100 µM and the TGI (KM12 colon) was 29.1 µM and > 100 µM. For the same compound, the TGI (LOX IMVI melanoma) was 15.1 µM and > 100 µM, the GI50 (M14 melanoma) was 11.3 µM and > 100 µM and the TGI (M14 melanoma) was 23.7 µM and > 100 µM. For the same compound, the TGI (MALME-3M melanoma) was 4.42 µM, the GI50 (MCF7 breast) was 11.9 µM and > 100 µM and the TGI (MCF7 breast) was 28.7 µM and > 100 µM. For the same compound, the GI50 (MDA-MB-231 breast) was 14.4 µM and > 100 µM, the TGI (MDA-MB-231 breast) was 31.8 µM and > 100 µM and the GI50 (MOLT-4 leukemia) was 21.7 µM and > 100 µM. For the same compound, the TGI (MOLT-4 leukemia) was > 100 µM, the GI50 (NCI-H226 lung) was 19 µM and > 100 µM and the TGI (NCI-H226 lung) was 38.4 µM and > 100 µM. The TGI (NCI-H23 lung) was 19.5 µM and > 100 µM, the GI50 (NCI-H460 lung) was 12.2 µM and > 100 µM and the TGI (NCI-H460 lung) was 30 µM and > 100 µM. The TGI (NCI-H522 lung) was 16.6 µM and > 100 µM, the GI50 (NCI/ADR-RES ovarian) was 22.7 µM and > 100 µM and the TGI (NCI/ADR-RES ovarian) was > 100 µM. The TGI (OVCAR-3 ovarian) was 25 µM and > 100 µM, the GI50 (OVCAR-4 ovarian) was 15.9 µM and > 100 µM and the TGI (OVCAR-4 ovarian) was 29.7 µM and > 100 µM. For the same compound, the GI50 (OVCAR-5 ovarian) was 22.4 µM and > 100 µM, the TGI (OVCAR-5 ovarian) was 37.4 µM and > 100 µM and the GI50 (OVCAR-8 ovarian) was 14 µM and > 100 µM. The TGI (OVCAR-8 ovarian) was 37.3 µM and > 100 µM, the GI50 (PC-3 prostate) was 10.1 µM and > 100 µM and the TGI (PC-3 prostate) was 35 µM and > 100 µM. The GI50 (RPMI-8226 leukemia) was 12.2 µM and > 100 µM, the TGI (RPMI-8226 leukemia) was 42.3 µM and > 100 µM and the GI50 (RXF 393 renal) was 16.2 µM and > 100 µM. The TGI (RXF 393 renal) was 30.1 µM and > 100 µM, the TGI (SF-268 CNS) was 26.8 µM and > 100 µM and the GI50 (SF-295 CNS) was 20 µM and > 100 µM. For the same compound, the TGI (SF-295 CNS) was 34.4 µM and > 100 µM, the GI50 (SF-539 CNS) was 13.8 µM and > 100 µM and the TGI (SF-539 CNS) was 26.9 µM and > 100 µM. For the same compound, the TGI (SK-MEL-2 melanoma) was 16 µM and > 100 µM, the GI50 (SK-MEL-28 melanoma) was 15.6 µM and > 100 µM and the TGI (SK-MEL-28 melanoma) was 29.4 µM and > 100 µM. The GI50 (SK-OV-3 ovarian) was 18.3 µM and > 100 µM, the TGI (SK-OV-3 ovarian) was 33.2 µM and > 100 µM and the GI50 (SN12C renal) was 14.5 µM and > 100 µM. The TGI (SN12C renal) was 29.4 µM and > 100 µM, the TGI (SNB-19 CNS) was 27.1 µM and the GI50 (SNB-75 CNS) was 17.8 µM and > 100 µM. The TGI (SNB-75 CNS) was 35.2 µM and > 100 µM, the GI50 (SR leukemia) was 10.6 µM and 93 µM and the TGI (SR leukemia) was > 100 µM. For the same compound, the GI50 (SW-620 colon) was 10.1 µM and > 100 µM, the TGI (SW-620 colon) was 32.2 µM and > 100 µM and the TGI (T-47D breast) was 25.2 µM and > 100 µM. The GI50 (TK-10 renal) was 22.7 µM and > 100 µM, the TGI (TK-10 renal) was 38.4 µM and > 100 µM and the GI50 (U251 CNS) was 10.6 µM and > 100 µM. For the same compound, the TGI (U251 CNS) was 24.1 µM and > 100 µM, the TGI (UACC-257 melanoma) was 21.6 µM and > 100 µM and the GI50 (UO-31 renal) was 14.5 µM and > 100 µM. The TGI (UO-31 renal) was 30.5 µM and > 100 µM.
